Structures can show the parent of a compound that is named as a salt. ± gives the standard deviation of the averaged measurements.
System: HepaRG
Test: LDH release cytotoxicity, % of total lysis control; higher = more cytotoxic
Settings: 48 h
Method in brief: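 On collagen I-coated 96-well plates, single-lot HepaRG cells were exposed for 48 h, in duplicate, to eight-point half-log series of test chemicals beginning at 100 µM. The exposure medium was serum-free induction medium with 0.5% DMSO, and total lysis wells got 0.1% Triton X. Resorufin fluorescence from the CytoTox-ONE reaction, read on a Tecan Safire, reported LDH in 50 µL of spent medium. Percent cytotoxicity came from normalization to on-plate vehicle and total lysis controls, averaged over the duplicates.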

SMILES	LDH release cytotoxicity (0.03162 µM)	LDH release cytotoxicity (0.1 µM)	LDH release cytotoxicity (0.3162278 µM)	LDH release cytotoxicity (1 µM)	LDH release cytotoxicity (3.16228 µM)	LDH release cytotoxicity (10 µM)	LDH release cytotoxicity (31.6228 µM)	LDH release cytotoxicity (100 µM)	LDH release cytotoxicity (0.031623 µM)	LDH release cytotoxicity (0.316228 µM)	LDH release cytotoxicity (0.0320971 µM)	LDH release cytotoxicity (0.1015 µM)	LDH release cytotoxicity (0.320971 µM)	LDH release cytotoxicity (1.015 µM)	LDH release cytotoxicity (3.2097118 µM)	LDH release cytotoxicity (10.15 µM)	LDH release cytotoxicity (32.0971 µM)	LDH release cytotoxicity (101.5 µM)
CCCC(=O)OCCC(C)C [Isopentyl butyrate]	0.497 ± 0.0082%	-0.72 ± 1.4%	-0.446 ± 0.5%	-0.671 ± 1.2%	0.184 ± 1.4%	0.168 ± 0.62%	0.438 ± 0.51%	1.65 ± 0.66%	–	–	–	–	–	–	–	–	–	–
CC1(C)CC(N=C=O)CC(C)(CN=C=O)C1 (configuration not stated) [Isophorone diisocyanate]	-2.14 ± 0.59%	-2.6 ± 0.31%	-2.25 ± 1.1%	-2.1 ± 0.37%	-1.35 ± 0.43%	-1.724 ± 0.015%	-2.21 ± 0.73%	0.405 ± 0.69%	–	–	–	–	–	–	–	–	–	–
CC1=CC(=O)CC(C)(C)C1 [Isophorone]	-0.205 ± 0.22%	0.529 ± 2.1%	-0.132 ± 0.62%	-0.235 ± 0.13%	0.145 ± 0.46%	1.04 ± 0.22%	0.514 ± 0.36%	1.74%	–	–	–	–	–	–	–	–	–	–
CCCN(CCC)c1c([N+](=O)[O-])cc(C(C)C)cc1[N+](=O)[O-] [Isopropalin]	-0.731 ± 0.3%	-1.48 ± 0.89%	-2.92 ± 0.17%	-1.36 ± 0.06%	-1.98 ± 0.26%	-1.28 ± 0.079%	-1.55 ± 0.27%	-0.986 ± 0.92%	–	–	–	–	–	–	–	–	–	–
CC(C)[O-].CC(C)[O-].[O-]CCN(CCO)CCO.[O-]CCN(CCO)CCO.[Ti+4] [Isopropyl triethanolamine titanate]	-5.22 ± 4.5%	-1.09 ± 0.96%	-0.881 ± 0.2%	-0.333 ± 0.037%	0.622 ± 0.39%	0.156 ± 1.4%	0.0089 ± 0.55%	0.6851 ± 0.0067%	–	–	–	–	–	–	–	–	–	–
CC(C)NCC(O)c1ccc(O)c(O)c1 (configuration not stated) [Isoproterenol hydrochloride]	-1.33 ± 0.21%	-0.922 ± 5.4%	0.959 ± 0.54%	2.34 ± 1.1%	2.16 ± 0.62%	-0.0702 ± 0.068%	-1.75 ± 0.25%	-1.61 ± 0.35%	–	–	–	–	–	–	–	–	–	–
CCC(C)(CC)c1cc(NC(=O)c2c(OC)cccc2OC)on1 [Isoxaben]	-2.09 ± 1.5%	-2.04 ± 0.44%	-2.03 ± 0.16%	-2.59 ± 0.72%	-2.88 ± 0.57%	-1.64 ± 0.83%	-1.59 ± 0.14%	11.4 ± 1.3%	–	–	–	–	–	–	–	–	–	–
CS(=O)(=O)c1cc(C(F)(F)F)ccc1C(=O)c1cnoc1C1CC1 [Isoxaflutole]	-0.368 ± 0.91%	-1.2 ± 0.74%	-2.1 ± 0.12%	-1.58 ± 1.2%	-0.928 ± 1.1%	-0.455 ± 0.32%	-0.687 ± 0.2%	0.934 ± 0.86%	–	–	–	–	–	–	–	–	–	–
O=C1C2(Cl)C3(Cl)C4(Cl)C(Cl)(Cl)C5(Cl)C3(Cl)C1(Cl)C5(Cl)C24Cl (configuration not stated) [Kepone]	-0.309 ± 0.28%	0.458 ± 0.64%	-0.526 ± 0.16%	-0.604 ± 0.8%	-0.552 ± 0.22%	-0.815 ± 0.31%	8.06 ± 1.2%	90.1 ± 3.4%	–	–	–	–	–	–	–	–	–	–
CC(=O)N1CCN(c2ccc(OCC3COC(Cn4ccnc4)(c4ccc(Cl)cc4Cl)O3)cc2)CC1 (configuration not stated) [Ketoconazole]	-3.06 ± 0.81%	-3.11 ± 0.33%	-2.22 ± 0.27%	-2.59 ± 0.32%	-2.26 ± 0.88%	2.6 ± 2.2%	1.63 ± 0.66%	80.8 ± 7.1%	–	–	–	–	–	–	–	–	–	–
O=C(O)[C@H](O)[C@@H](O)C(=O)O [L-Tartaric acid]	-3.55 ± 0.17%	-2.52 ± 1.6%	-2.17 ± 1.1%	-2.97 ± 1.1%	-2.2 ± 0.7%	-0.465 ± 0.18%	1.18 ± 0.94%	6.93 ± 0.79%	–	–	–	–	–	–	–	–	–	–
N[C@@H](Cc1c[nH]c2ccccc12)C(=O)O [L-Tryptophan]	-1.94 ± 0.23%	-2.65 ± 0.14%	-1.1 ± 0.19%	-1.86 ± 0.22%	-2.03 ± 0.27%	-1.29 ± 0.26%	-1.37 ± 0.3%	-1.29 ± 0.24%	–	–	–	–	–	–	–	–	–	–
CCOC(=O)C(C)OC(=O)c1cc(Oc2ccc(C(F)(F)F)cc2Cl)ccc1[N+](=O)[O-] (configuration not stated) [Lactofen]	-1.17 ± 0.45%	-0.64 ± 0.62%	-0.974 ± 0.24%	-1.12 ± 0.48%	-0.601 ± 0.34%	-0.515 ± 0.76%	-0.447 ± 0.37%	0.298 ± 0.45%	–	–	–	–	–	–	–	–	–	–
C#CC1(O)CCC2C3CCC4=CC(=O)CCC4C3CCC21CC (configuration not stated) [Levonorgestrel]	-1.38 ± 1.4%	-1.25 ± 1.1%	-1.67 ± 1.2%	-1.92 ± 0.3%	-1.95 ± 0.12%	-1.02 ± 0.035%	-0.294 ± 1.1%	0.81 ± 0.17%	–	–	–	–	–	–	–	–	–	–
ClC1C(Cl)C(Cl)C(Cl)C(Cl)C1Cl (configuration not stated) [Lindane]	-0.796 ± 0.18%	-0.605 ± 0.45%	-0.762 ± 1%	-0.901 ± 0.75%	-0.128 ± 0.47%	-0.657 ± 0.1%	0.201 ± 0.43%	5.07 ± 0.72%	–	–	–	–	–	–	–	–	–	–
CON(C)C(=O)Nc1ccc(Cl)c(Cl)c1 [Linuron]	-1.04 ± 0.089%	-1.18 ± 0.7%	-1.18 ± 0.5%	-0.927 ± 0.94%	-1.44 ± 0.95%	-0.708 ± 0.44%	0.755 ± 1%	0.919 ± 1.2%	–	–	–	–	–	–	–	–	–	–
CCC(C)C(=O)OC1CC(C)C=C2C=CC(C)C(CCC3CC(O)CC(=O)O3)C21 (configuration not stated) [Lovastatin]	–	-2.24 ± 2.7%	–	-3.8 ± 0.94%	-3.98 ± 0.75%	-3.52 ± 0.1%	-3.4 ± 0.086%	1.06 ± 0.76%	-0.879 ± 0.35%	-3.24 ± 1.1%	–	–	–	–	–	–	–	–
Cc1cc(Cl)ccc1OCC(=O)O [MCPA]	-0.121 ± 0.17%	-0.914 ± 0.53%	-0.511 ± 0.28%	-0.689 ± 0.68%	-0.578 ± 0.24%	-0.154 ± 0.47%	0.865 ± 0.061%	1.22 ± 0.86%	–	–	–	–	–	–	–	–	–	–
CCCCC(CC)COC(=O)c1ccccc1C(=O)O (configuration not stated) [MEHP]	–	–	–	–	–	–	–	–	–	–	-1.24 ± 1.4%	-1.27 ± 0.27%	-1.13 ± 1.5%	-1.47 ± 1.3%	-1.28 ± 0.83%	-0.944 ± 0.92%	-1.07 ± 0.41%	0.594 ± 0.91%

Source: the supplement of paper PMC7840683
